Data on five compounds can be found in patent publication US20260265329A1, “POLYPEPTIDE AND DERIVATIVE THEREOF, COMPOSITION, AND USE THEREOF” (HANGZHOU SCIWIND BIOSCIENCES CO., LTD., priority 2023, published 2026).

The target in the assay is T1, human amylin receptors (Homo sapiens, UniProt O60896+P30988).
T1 construct: host or cells: CHO-K1/Ga15/AMY3 cells, further stably transfected with a CRE-luciferase plasmid
T1 sequence (P30988 25-474): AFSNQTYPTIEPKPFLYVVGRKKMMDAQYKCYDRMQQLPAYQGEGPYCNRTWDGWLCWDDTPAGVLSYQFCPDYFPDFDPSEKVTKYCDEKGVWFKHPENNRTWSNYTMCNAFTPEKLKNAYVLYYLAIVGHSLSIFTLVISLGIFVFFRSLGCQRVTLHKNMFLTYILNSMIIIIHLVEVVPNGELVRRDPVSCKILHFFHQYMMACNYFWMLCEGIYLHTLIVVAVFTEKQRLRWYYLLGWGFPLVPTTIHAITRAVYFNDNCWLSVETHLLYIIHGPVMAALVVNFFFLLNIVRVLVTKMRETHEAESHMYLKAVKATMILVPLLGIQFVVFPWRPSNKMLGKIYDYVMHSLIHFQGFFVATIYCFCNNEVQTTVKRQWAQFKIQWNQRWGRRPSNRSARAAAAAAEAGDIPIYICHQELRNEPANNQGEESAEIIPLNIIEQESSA
T1 sequence (O60896 24-148 partner): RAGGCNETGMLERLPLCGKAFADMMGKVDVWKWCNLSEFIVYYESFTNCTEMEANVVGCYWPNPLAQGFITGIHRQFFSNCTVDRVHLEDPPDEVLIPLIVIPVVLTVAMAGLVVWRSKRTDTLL
Kind of assay: Luciferase assay in stably transfected amylin receptor/CRE-luc CHO cell line. In kind it is cell-based. As to conditions: for Relative activity: EC50 ratio of Cagrilintide to the compound, Cagrilintide 100%; for EC50: amylin receptor/CRE-luc CHO cells, 24 hours incubation, luminescence. The text has this: The objective of this assay is to test the potency of derivatives of polypeptides of the present application on human amylin receptors in vitro using a luciferase assay. Using the standard protocol, CHO-K1/Ga15/AMY3 cells (purchased from GenScript, with the calcitonin receptor and the receptor activity modifying peptide (RAMP) constructed already) were transfected with a plasmid containing a luciferase expression cassette driven by multiple copies of cAMP response elements (CREs). The cells were cultured in an F12 medium containing 200 μg/mL Zeocin, 2 μg/mL puromycin, 100 μg/mL hygromycin, and 400 μg/mL G418 to afford a stably transfected amylin receptor/CRE-luc cell line. The lyophilized powder from Example 1 was dissolved in 20 mM phosphate buffer solution with a pH of 7.0, and diluted in a growth medium (F12 culture medium containing 10% FBS) to give a derivative sample with an initial concentration of 10 nM, which was then subjected to a 5-fold serial dilution in the growth medium to obtain seven samples with concentrations between […]. In each well of a white 96-well plate, 50 μL of the tested sample solution was added with a corresponding concentration. The stably transfected amylin receptor/CRE-luc CHO cells were resuspended in the growth medium at a certain density, and 50 μL of the cell suspension was added at a density of about 20000 cells per well to the white 96-well plate containing the tested sample solution. After incubation of 24 hours at 37° C. and 5% CO2, 100 μL of a Luciferase substrate was added to each well, incubated for 3 minutes, and finally was tested for luminescence on SpectraMax L (Molecular Devices) with the software SoftMax Pro 7.0.3 GxP.

Starred links: 1 amine or outer side, 2 acyl side, 3 side chain; linkers in the order of their positions; H or OH if unused. Non-standard residues stand in square brackets, D forms with d. Residues, ends and D or L forms follow the SMILES beside them. *: point of attachment. C20 diacid = O=C(O)CCCCCCCCCCCCCCCCCCC(=O)*; γGlu = O=C(O)[C@H](CCC(=O)[*:2])N[*:1]; βAsp = O=C(O)[C@H](CC(=O)[*:2])N[*:1]; Hyp = O=C(O)[C@@H]1C[C@@H](O)CN1

A word on the EC50: it is the midpoint of the concentration-response curve. Regarding `CC[C@H](C)[C@H](NC(=O)[C@@H]1CCCN1C(=O)[C@H](CCCCN)NC(=O)[C@H](CC(C)C)NC(=O)[C@H](CC(N)=O)NC(=O)[C@H](CC(N)=O)NC(=O)[C@H](CO)NC(=O)[C@H](CO)NC(=O)[C@H](Cc1c[nH]cn1)NC(=O)[C@H](CCCNC(=N)N)NC(=O)[C@H](CC(C)C)NC(=O)[C@H](Cc1ccccc1)NC(=O)[C@H](CC(=O)O)NC(=O)[C@H](C)NC(=O)[C@H](CC(C)C)NC(=O)[C@H](CCCNC(=N)N)NC(=O)CNC(=O)[C@H](CC(C)C)NC(=O)[C@H](C)NC(=O)[C@H](C)NC(=O)[C@@H](NC(=O)[C@H](CO)NC(=O)[C@H](CC(C)C)NC(=O)[C@H](CCC(=O)O)NC(=O)[C@H](CO)NC(=O)[C@H](C)NC(=O)CC[C@H](NC(=O)CCCCCCCCCCCCCCCCCCC(=O)O)C(=O)O)[C@@H](C)O)C(=O)N[C@@H](CC(C)C)C(=O)N1CCC[C@H]1C(=O)N1CCC[C@H]1C(=O)N[C@H](C(=O)N[C@@H](CC(N)=O)C(=O)N[C@H](C(=O)NCC(=O)N[C@@H](CO)C(=O)N[C@@H](CC(N)=O)C(=O)N[C@H](C(=O)N1C[C@H](O)C[C@H]1C(N)=O)[C@@H](C)O)C(C)C)[C@@H](C)O` [M1] ({C20 diacid-γGlu}-ASELSTAALGRLADFLRHSSNNLKPILPPTNVGSNT[Hyp]-NH2), the Relative activity is on record as 49% and the EC50 was 0.053 nM.

Regarding `CC[C@H](C)[C@H](NC(=O)[C@H](CC(=O)O)NC(=O)[C@H](CCCNC(=N)N)NC(=O)[C@H](CC(=O)O)NC(=O)[C@H](CCCNC(=N)N)NC(=O)[C@H](CC(=O)O)NC(=O)[C@@H](NC(=O)[C@H](Cc1ccccc1)NC(=O)[C@H](Cc1c[nH]cn1)NC(=O)[C@H](CCCNC(=N)N)NC(=O)[C@H](CC(C)C)NC(=O)[C@H](Cc1ccccc1)NC(=O)[C@H](CC(=O)O)NC(=O)[C@H](C)NC(=O)[C@H](CC(C)C)NC(=O)[C@H](CCCNC(=N)N)NC(=O)CNC(=O)[C@H](CC(C)C)NC(=O)[C@H](C)NC(=O)[C@H](C)NC(=O)[C@@H](NC(=O)[C@H](CO)NC(=O)[C@H](CC(C)C)NC(=O)[C@H](CCC(=O)O)NC(=O)[C@H](CO)NC(=O)[C@H](C)NC(=O)CC[C@H](NC(=O)CCCCCCCCCCCCCCCCCCC(=O)O)C(=O)O)[C@@H](C)O)[C@@H](C)O)C(=O)N[C@@H](CC(C)C)C(=O)N1CCC[C@H]1C(=O)N1CCC[C@H]1C(=O)N[C@H](C(=O)N[C@@H](CC(N)=O)C(=O)N[C@H](C(=O)NCC(=O)N[C@@H](CO)C(=O)N[C@@H](CC(N)=O)C(=O)N[C@H](C(=O)N1CCC[C@H]1C(N)=O)[C@@H](C)O)C(C)C)[C@@H](C)O` [M3] ({C20 diacid-γGlu}-ASELSTAALGRLADFLRHFTDRDRDILPPTNVGSNTP-NH2), the Relative activity was 32% and the EC50 amounted to 0.081 nM.

For `CC[C@H](C)[C@H](NC(=O)[C@H](CC(=O)O)NC(=O)[C@H](CCCNC(=N)N)NC(=O)[C@H](CC(=O)O)NC(=O)[C@H](CCCNC(=N)N)NC(=O)[C@H](CC(=O)O)NC(=O)[C@@H](NC(=O)[C@H](Cc1ccccc1)NC(=O)[C@H](Cc1c[nH]cn1)NC(=O)[C@H](CCCNC(=N)N)NC(=O)[C@H](CC(C)C)NC(=O)[C@H](Cc1ccccc1)NC(=O)[C@H](CC(=O)O)NC(=O)[C@H](C)NC(=O)[C@H](CC(C)C)NC(=O)[C@H](CCCNC(=N)N)NC(=O)[C@H](CCC(N)=O)NC(=O)[C@@H](NC(=O)[C@H](C)NC(=O)[C@H](C)NC(=O)[C@@H](NC(=O)[C@H](CO)NC(=O)[C@H](CC(C)C)NC(=O)[C@H](CCC(N)=O)NC(=O)[C@H](CO)NC(=O)[C@H](C)NC(=O)[C@H](CCC(=O)O)NC(=O)CCCCCCCCCCCCCCCCCCC(=O)O)[C@@H](C)O)[C@@H](C)O)[C@@H](C)O)C(=O)N[C@@H](CC(C)C)C(=O)N1CCC[C@H]1C(=O)N1CCC[C@H]1C(=O)N[C@H](C(=O)N[C@@H](CC(N)=O)C(=O)N[C@H](C(=O)NCC(=O)N[C@@H](CO)C(=O)N[C@@H](CC(N)=O)C(=O)N[C@H](C(=O)N1CCC[C@H]1C(N)=O)[C@@H](C)O)C(C)C)[C@@H](C)O` [M11] ({C20 diacid}-EASQLSTAATQRLADFLRHFTDRDRDILPPTNVGSNTP-NH2), the Relative activity is 110% and the EC50 is 0.004 nM.

`CC[C@H](C)[C@H](NC(=O)[C@H](CC(=O)O)NC(=O)[C@H](CCCNC(=N)N)NC(=O)[C@H](CC(=O)O)NC(=O)[C@H](CCCNC(=N)N)NC(=O)[C@H](CC(=O)O)NC(=O)[C@@H](NC(=O)[C@H](Cc1ccccc1)NC(=O)[C@H](Cc1c[nH]cn1)NC(=O)[C@H](CCCNC(=N)N)NC(=O)[C@H](CC(C)C)NC(=O)[C@H](Cc1ccccc1)NC(=O)[C@H](CC(=O)O)NC(=O)[C@H](C)NC(=O)[C@H](CC(C)C)NC(=O)[C@H](CCCNC(=N)N)NC(=O)[C@H](CCC(N)=O)NC(=O)[C@@H](NC(=O)[C@H](C)NC(=O)[C@H](C)NC(=O)[C@@H](NC(=O)[C@H](CO)NC(=O)[C@H](CC(C)C)NC(=O)[C@H](CCC(N)=O)NC(=O)[C@H](CO)NC(=O)[C@H](C)NC(=O)C[C@H](NC(=O)CCCCCCCCCCCCCCCCCCC(=O)O)C(=O)O)[C@@H](C)O)[C@@H](C)O)[C@@H](C)O)C(=O)N[C@@H](CC(C)C)C(=O)N1CCC[C@H]1C(=O)N1CCC[C@H]1C(=O)N[C@H](C(=O)N[C@@H](CC(N)=O)C(=O)N[C@H](C(=O)NCC(=O)N[C@@H](CO)C(=O)N[C@@H](CC(N)=O)C(=O)N[C@H](C(=O)N1CCC[C@H]1C(N)=O)[C@@H](C)O)C(C)C)[C@@H](C)O` [M12] ({C20 diacid-βAsp}-ASQLSTAATQRLADFLRHFTDRDRDILPPTNVGSNTP-NH2): the Relative activity came out at 78% and a half-maximal effect (EC50) was put at 0.034 nM.

In the case of `CC[C@H](C)[C@H](NC(=O)[C@H](CC(=O)O)NC(=O)[C@H](CCCNC(=N)N)NC(=O)[C@H](CC(=O)O)NC(=O)[C@H](CCCNC(=N)N)NC(=O)[C@H](CC(=O)O)NC(=O)[C@@H](NC(=O)[C@H](Cc1ccccc1)NC(=O)[C@H](Cc1c[nH]cn1)NC(=O)[C@H](CCCNC(=N)N)NC(=O)[C@H](CC(C)C)NC(=O)[C@H](Cc1ccccc1)NC(=O)[C@H](CC(=O)O)NC(=O)[C@H](C)NC(=O)[C@H](CC(C)C)NC(=O)[C@H](CCCNC(=N)N)NC(=O)[C@H](CCC(N)=O)NC(=O)[C@@H](NC(=O)[C@H](C)NC(=O)[C@H](C)NC(=O)[C@@H](NC(=O)[C@H](CO)NC(=O)[C@H](CC(C)C)NC(=O)[C@H](CCC(N)=O)NC(=O)[C@H](CO)NC(=O)[C@H](C)NC(=O)[C@H](CC(=O)O)NC(=O)CCCCCCCCCCCCCCCCCCC(=O)O)[C@@H](C)O)[C@@H](C)O)[C@@H](C)O)C(=O)N[C@@H](CC(C)C)C(=O)N1CCC[C@H]1C(=O)N1CCC[C@H]1C(=O)N[C@H](C(=O)N[C@@H](CC(N)=O)C(=O)N[C@H](C(=O)NCC(=O)N[C@@H](CO)C(=O)N[C@@H](CC(N)=O)C(=O)N[C@H](C(=O)N1CCC[C@H]1C(N)=O)[C@@H](C)O)C(C)C)[C@@H](C)O` [M13] ({C20 diacid}-DASQLSTAATQRLADFLRHFTDRDRDILPPTNVGSNTP-NH2), the Relative activity came to 78% and the EC50 stood at 0.034 nM.
